Patent US8263574B2, “Topical formulations for the treatment of depression with S adenosyl methionine” (priority 2004, dated 2012)
Several values for one entry are separate records, joined by “and”; a condition that tells them apart may be missing. Equal entries are not always repeated. Where two headings read alike, the source gives them in different places.

Assays:
[1] = system: patients with Major Depression; settings: cited from earlier work
Major Depression = assay: Child case studies: oral SAM-e in Major Depression (Children's Depression Inventory, clinical report); assay type: in vivo, human
From the text: Two girls were brought in for a consult by a pediatrician and their spouse, a nutritionist. Both parents had studied SAM-e, and preferred “a trial” before traditional anti-depressants.
Case 1. A child (34 kg.) developed increased irritability, boredom, eccentric crying, withdrawal, decreased appetite, middle insomnia, new school performance problems and sadness. They began to discuss death themes and became preoccupied with heaven, despite no new exposures to these topics. They met DSM-IV TR criteria for Major Depression, had no significant stressors in their life, and on the Children's Depression Inventory (CDI) scored a 34.
They were placed on a 200 mg SAM-e enteric-coated tablet each morning, before eating for a week. Subsequently, the dose was raised to 400 mg. […] Improvement began after 4 days on 400 mg. At three weeks, it was increased to 600 mg a day, with rapid and complete resolution of their depressive symptoms in 2 days. […] Their CDI fell to a 4. They have been on this dose for over 6 months.
Case 2. child one (24 kg.) developed new problems with crying, sadness, decreased play, and an inability to be consoled. They made new negative identity comments, i.e., “I'm no good Mommy.” The child was well liked by adults and peers, but felt “no one liked them,” They also began saying they “hated school” even though they were in the top ⅓rd of their class. Their symptoms began 4-5 months after their sibling's MD began. They met DSM-IV TR criteria for Major Depression and on the Children's Depression Inventory scored 29.
Their CDI decreased to 6 and 7. After 3 months, they were “a little sad like before” per their parent, and was increased to 200 mg each am and afternoon with a CDI of 6. They have remained on this dose for over 6 months.
Case 3. A person (86 kg.), unrelated to the girls described above, was diagnosed with Major Depression and Oppositional Defiant Disorder based on DSM-IV TR criteria from a clinical interview with parents and patient. They refused diagnostic scales. Their parents reported a 1½ year history of irritability, boredom, reactivity, decreased interest in all activities but computer games, sadness, excess sleep, fatigue, hopelessness, and trouble concentrating. […] Extensive laboratory testing and family doctor physical exam were negative.
Their mood and function improved to their baseline over 1-2 weeks according to parents, teacher and psychiatrist. Yet they had residual oppositionality. After 2-3 months the youth stopped their SAM-e due to “being sick of all the pills.” They had been taking […] tablets daily. They relapsed over the course of 3 weeks to “½” […] initial baseline depression per patient and parents. Again, they refused quantitative depression scales. Behaviorally, they stopped returning calls, became bored again, and had decreased homework performance with no identifiable new stressors. Restoring the SAM-e to three 400 mg tablets—800 mg per am and 400 after school—restored them to baseline in 5-8 days from parent report confirmed with diagnostic interview. They have remained on this dosing for approximately 22 weeks.

[2] = infusions of 800 mg, placebo-controlled crossover; cited from earlier work
[3] = system: major depressive disorder; settings: cited from earlier work
depressive symptoms = settings: 195 patients, 400 mg intramuscular for 15 days; cited from earlier work

C[S+](CC[C@H](N)C(=O)O)C[C@H]1O[C@@H](n2cnc3c(N)ncnc32)[C@H](O)[C@@H]1O (some centres unmarked) [SAM-e, S-adenosyl methionine]
efficacy compared with imipramine ([1]; SAM-e intramuscular 400 mg/d vs. oral IMI 150 mg/d, 4 weeks): did not differ significantly on any efficacy measure | tolerability compared with imipramine ([1]; both studies): better tolerated than IMI | efficacy compared with imipramine ([1]; intramuscular (400 mg) and oral SAM-e (1600 mg, 6 weeks) in adults): comparable to 150 mg of imipramine (IMI) | response over 3 weeks (Major Depression; Case 1, oral 400 mg): modest improvement | time until improvement began (Major Depression; Case 1, oral 400 mg): 4 days | side effects (Major Depression; Case 1, oral 600 mg a day): no signs of mania, anxiety, insomnia, diarrhea, abdominal pain or nausea | time to complete resolution of depressive symptoms (Major Depression; Case 1, oral 600 mg a day): 2 days | Children's Depression Inventory (CDI) on treatment (Major Depression; Case 1, oral 600 mg a day, CDI before treatment 34): 4 | time to signs of improvement (Major Depression; Case 2 (person one), oral 200 mg): 2 days | side effects (Major Depression; Case 2, oral 200 mg): no side effects | time until at baseline (Major Depression; Case 2, oral 200 mg): 11 days | Children's Depression Inventory (CDI) on treatment (Major Depression; Case 2, oral 200 mg each am and afternoon, after 3 months): 6 | Children's Depression Inventory (CDI) on treatment (Major Depression; Case 2, oral 200 mg, CDI before treatment 29): 6 and 7 | time until restored to baseline after restart (Major Depression; Case 3, oral 800 mg per am and 400 after school): 5 to 8 days | side effects after dose reduction (Major Depression; Case 3, oral 1400 mg): loss of both side effects | time until mood and function improved to baseline (Major Depression; Case 3, oral 1400 mg): 1-2 weeks | side effects (Major Depression; Case 3, oral 1800 mg): slight tremor and slight anxiety | time course of relapse after stopping SAM-e (Major Depression; Case 3, relapse to "½" initial baseline depression): 3 weeks | self-reported effect on depression (Major Depression; both parents of Cases 1 and 2, 1200-1400 mg per day): full remission of their depression | EEG / ERP antidepressant effects [2]: effects greater than placebo | efficacy in major depressive disorder ([3]; 13 trials vs placebo, 19 trials vs tricyclic antidepressants, more than 1,400 patients): effective | efficacy in major depression versus placebo and tricyclics ([3]; intravenous and intramuscular preparations, 14 double-blind European studies): more effective than placebo and comparable to imipramine, amitriptyline and clomipramine | effect on depressive symptoms (depressive symptoms): remission on both day 7 and 15
